Test systems include HOP-62 NSCLC; HOP-92 NSCLC; LOX IMVI melanoma; NCI-H522 lung; OVCAR-5 ovarian; RXF 393 renal; SF-295 CNS; TK-10 renal; RPMI-8226 leukemia.
Assay in all cases: growth of human tumour cells (NCI), 48 h

Molecules are shown by their SMILES.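 Values below derive from 48-hour exposures of cells grown in 96-well plates, with endpoints linearly interpolated between the two concentrations bracketing the appropriate inhibition level. GI50 is the concentration that inhibits growth by half. TGI: concentration producing complete growth inhibition.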

For the compound `CC1=C(C(=O)NCc2ccccc2)C(c2ccc([N+](=O)[O-])cc2)C(C(=O)NCc2ccccc2)=C(C)N1`, the TGI with HOP-62 NSCLC is > 100 µM; with HOP-92 NSCLC it was 73.6 µM; in the experiment with LOX IMVI melanoma, 44.1 µM; in the experiment on NCI-H522 lung, > 100 µM; with OVCAR-5 ovarian, 93.5 µM; with RXF 393 renal, 86.5 µM. The TGI in the experiment on SF-295 CNS and with TK-10 renal was > 100 µM throughout.
For `O=C(/C=C/C=C/c1c(C2CC2)nc2ccccc2c1-c1ccc(F)cc1)c1cccs1`, the GI50 in the experiment with HOP-62 NSCLC is 2.74 µM; in the experiment with HOP-92 NSCLC it was 1.83 µM; in the experiment with NCI-H522 lung, 2.52 µM; in the experiment with SF-295 CNS, 1.95 µM; in the experiment with TK-10 renal, 4.58 µM. Besides, the TGI is 7.25 µM in the experiment with HOP-62 NSCLC; 8.6 µM with HOP-92 NSCLC; 9.09 µM with NCI-H522 lung; 5.97 µM with SF-295 CNS; 32.9 µM in the experiment with TK-10 renal.
For the compound `COC1=CC23CCCN2CCc2cc4c(cc2C3C1O)OCO4` (stereo unspecified), the TGI with HOP-92 NSCLC, in the experiment with LOX IMVI melanoma, with NCI-H522 lung, in the experiment on OVCAR-5 ovarian, with SF-295 CNS and in the experiment with TK-10 renal was > 100 µM each time.
As to `CC(=O)O[C@H]1CCC2[C@@H]3CCC4=C(O)C(=O)C(C#N)C[C@]4(C)C3CC[C@@]21C` (stereo partly specified), the TGI in the experiment on HOP-62 NSCLC is > 100 µM; in the experiment with HOP-92 NSCLC, 8.33 µM; with LOX IMVI melanoma, > 100 µM; in the experiment with OVCAR-5 ovarian, > 100 µM; in the experiment on RPMI-8226 leukemia, > 100 µM; in the experiment with RXF 393 renal, > 100 µM. Besides, the TGI in the experiment with SF-295 CNS and with TK-10 renal was > 100 µM in each case.
For the compound `CN1C(c2ccccc2)CS(=O)(=O)CS1(=O)=O` (stereo unspecified), the TGI in the experiment on HOP-62 NSCLC, with LOX IMVI melanoma, in the experiment with OVCAR-5 ovarian, in the experiment with RXF 393 renal, in the experiment on SF-295 CNS and in the experiment on TK-10 renal was > 100 µM throughout.
Turning to `Cc1ccccc1C(=O)Oc1ccc(O)cc1`, the TGI in the experiment on HOP-62 NSCLC, with NCI-H522 lung, in the experiment with OVCAR-5 ovarian, with RPMI-8226 leukemia, with RXF 393 renal and with SF-295 CNS was > 100 µM each time. Moreover, in the experiment with TK-10 renal, the TGI is > 100 µM.
Take `CC(=O)O[C@@H]1[C@@H](O)C2=C3[C@]4(C)[C@@H]1C(C)(C)C(=O)C[C@@H]4[C@]3(O)[C@H](OC(C)=O)[C@@]1(C[C@@H]1C)C2=O`: the TGI turned out to be 36.6 µM with HOP-92 NSCLC; 30.5 µM in the experiment with LOX IMVI melanoma; 19.2 µM with NCI-H522 lung; 54.9 µM in the experiment with OVCAR-5 ovarian; 98.4 µM with RPMI-8226 leukemia; 42.1 µM in the experiment on SF-295 CNS. The TGI in the experiment on TK-10 renal was found to be 29.7 µM.
For the compound `CCN1C2=NCCN2S(=O)(=O)c2ccccc21`, the TGI in the experiment with HOP-62 NSCLC, in the experiment with HOP-92 NSCLC, in the experiment with LOX IMVI melanoma, in the experiment with NCI-H522 lung, in the experiment on OVCAR-5 ovarian and with RXF 393 renal was > 100 µM each time. In addition, the TGI with SF-295 CNS and in the experiment on TK-10 renal was > 100 µM each time.
On to `Nc1nc2cc3ccc(C4CC(O)C(CO)O4)cc3cc2c(=O)[nH]1` (stereo unspecified), for which the GI50 in the experiment on HOP-62 NSCLC, in the experiment on HOP-92 NSCLC, with LOX IMVI melanoma, in the experiment on NCI-H522 lung, in the experiment with OVCAR-5 ovarian and in the experiment on RPMI-8226 leukemia was > 100 µM in each case. Moreover, the GI50 in the experiment on RXF 393 renal and with SF-295 CNS was > 100 µM in each case. Besides, the TGI with HOP-62 NSCLC, in the experiment with HOP-92 NSCLC, with LOX IMVI melanoma, in the experiment on NCI-H522 lung, with OVCAR-5 ovarian and with RPMI-8226 leukemia was > 100 µM throughout. Moreover, the TGI in the experiment on RXF 393 renal and in the experiment on SF-295 CNS was > 100 µM in each case.
As to `COc1cc2c3c(n(CCCNCCCNCCCNCCCN)c(=O)c2cc1OC)-c1cc2c(cc1C3=O)OCO2`, the GI50 in the experiment on HOP-62 NSCLC is 3.01 µM; in the experiment with HOP-92 NSCLC it was 2.74 µM; with LOX IMVI melanoma it was 1.15 µM; in the experiment with NCI-H522 lung it was 3.61 µM; in the experiment with OVCAR-5 ovarian it was 1.76 µM; in the experiment with RXF 393 renal, 1.7 µM. Moreover, the GI50 is 1.38 µM with SF-295 CNS and 2.8 µM in the experiment with TK-10 renal. Further, the TGI was 13 µM in the experiment on HOP-62 NSCLC; 9.64 µM in the experiment on HOP-92 NSCLC; 3.25 µM with LOX IMVI melanoma; > 100 µM with NCI-H522 lung; 5.63 µM in the experiment on OVCAR-5 ovarian; 4.46 µM in the experiment with RXF 393 renal. Further, the TGI in the experiment with SF-295 CNS amounted to 3.97 µM; with TK-10 renal it was 5.8 µM.
As for `CN(C)c1ncc(-c2ccc(C(F)(F)F)cc2)c(NC2CCCCCC2)n1`, the GI50 in the experiment with HOP-62 NSCLC was 24.5 µM; with NCI-H522 lung it was 11.2 µM; in the experiment on OVCAR-5 ovarian it was 18.2 µM; in the experiment with RPMI-8226 leukemia it was 6.51 µM; in the experiment with RXF 393 renal, 10.8 µM; in the experiment on SF-295 CNS it was 17.5 µM. Also, the GI50 in the experiment with TK-10 renal is 40.6 µM. Further, the TGI was found to be 61 µM in the experiment with HOP-62 NSCLC; 30.2 µM in the experiment with NCI-H522 lung; 38.8 µM in the experiment on OVCAR-5 ovarian; 24.4 µM in the experiment on RPMI-8226 leukemia; 27.2 µM in the experiment with RXF 393 renal; 37.4 µM in the experiment with SF-295 CNS. Further, the TGI with TK-10 renal is > 100 µM.

(Values after PubChem BioAssay (NCI).)
